{
  "source": "patent US20020193351A1",
  "about": "“Fungicidal and bactericidal compositions for plants containing phosphonate and phosphate salts, metal chelates, and derivatives thereof” (priority 1996, published 2002)",
  "key": {"[1]": {"system": "Citrus Greasy Spot perithecia", "assay": "Citrus Greasy Spot perithecia count on Valencia orange leaves (Example 2)", "assay_type": "in vivo, Mycosphaerella citri", "details": "for #PERITHECIA (Number of Perithecia Per 5 MM Field at 2.5×, Mean of Three Observations): applied mid-July, leaves harvested approximately 4 months later", "protocol": "In the present Example, fungicides were again tested on “Valencia” oranges except the effect of various fungicides on perithecia was tested.\nTwenty mature leaves (from the spring flush) per replicate were harvested approximately 4 months later and placed under greenhouse conditions and alternately wetted and dried to simulate natural defoliation and weathering.\nThese conditions, in turn, cause the fungus to sporulate by the formation of perithecia (spore production body of fungus). The […] were counted as a means of measuring the fungicidal activity of the treatments.\nNumber of Perithecia Per 5 MM Field at 2.5×—Mean of Three Observations\nAs used herein, a, b, c, and ab indicate statistical significance using Duncan's multiple range test. In interpreting the data, a different notation, e.g. b versus ab, means there was a statistically significant difference in the results. A difference in data of samples with the same letter notation was not statistically significant."}, "[2]": {"system": "Oak Leaf Blister (Taphrina Caerulescens)", "assay": "Oak Leaf Blister control on laurel oaks (Example 5)", "assay_type": "in vivo", "details": "for DISEASE INDEX: applications in July approximately 3 weeks apart, rated in August, index 1 = no disease to 5 = dead foliage", "from_the_text": "Applications were made in July approximately 3 weeks apart and rated in August a month later. See data below."}, "plants": {"system": "plants", "details": "foliar applications; cited from earlier work"}, "[3]": {"system": "Phytophthora infestans (Genotype US-8, Matingtype A2)", "assay_type": "in vivo", "details": "for LESIONS PER PLANT / NO. INFECTED LEAFLETS PER PLANT / % LATE BLIGHT: potato, read seven days after inoculation; for % LATE BLIGHT: two treatments 7 days apart, inoculated 7 days later"}, "[4]": {"system": "Phytophthora infestans (Genotype US-17, Matingtype A1)", "assay_type": "in vivo", "details": "tomato; 1% v/v; read seven days after inoculation"}, "Alternaria dauci": {"system": "Alternaria dauci", "assay": "Carrot/Alternaria fungicide trial (Example 10)", "details": "for AVERAGE % OF INFECTION 04/23/96 / AVERAGE % OF INFECTION 04/05/96: 8 applications; for AVERAGE % OF INFECTION 04/23/96: 25 days after last application; for AVERAGE % OF INFECTION 04/05/96: seven days after last treatment; for Alternaria control on carrots, verdict: Example 10, comment on the table", "procedure": "In the present example, carrots were inoculated with the Alternaria fungus. The carrots were then treated with the below listed fungicidal compositions. Also a control test was conducted. The percentage of the fungicide in the solution is also listed below along with the results. Plot size for testing was a single row of 25 feet by 4 repetitions in an RCB design. The fungicide was applied eight (8) times with the carrots then examined for infection seven (7) days and twenty-five (25) days after the last fungicidal treatment.\nPLOT SIZE: Single Row×25 ft.×4 reps in a RCB design. Application dates: 2/2, 9,15,22,3/8,14,22, and 28. Rated 4/5 and 4/23/96\nNOTE: Second rating was 25 days after last fungicide application. Plots were inoculated with Alternaria dauci."}, "Erwinia chrysanthemi": {"system": "Erwinia chrysanthemi", "assay": "Erwinia control on Hibiscus cuttings, foliar spray (Example 6)", "assay_type": "in vivo", "details": "for AVERAGE % INFECTION: rated one week later", "from_the_text": "Treatments were allowed to dry for one hour and then placed in a commercial propagation bed under intermittent mist and rated for bacterial (Erwinia chrysanthemi) infection one week later."}, "Erwinia": {"system": "Erwinia", "assay": "Erwinia control on Hibiscus rooted cuttings, dip and spray (Example 7)", "assay_type": "in vivo, Erwinia chrysanthemi", "details": "for AVERAGE % INFECTION: dip, then foliar spray 7 days later", "protocol": "A follow-up experiment to Example 6 was conducted on rooted cuttings which were dipped as they were removed from the propagation bed and foliarly sprayed 7 days later after being potted. […] Potted cuttings had not received any previous bactericide treatments prior to potting."}, "[5]": {"system": "bacterial spots on pepper plants", "assay_type": "in vivo", "details": "weekly applications; g AI/liter: copper+mancozeb 2+1, Cu-EDDHA 0.1, CGA-143268 1.0, other CGA compounds 0.25 and 0.5"}, "Xanthomonas campestris": {"system": "Xanthomonas campestris", "assay": "Xanthomonas leaf spot of croton Codiaeum variegatum (Example 9)", "assay_type": "in vivo", "details": "for AVERAGE % OF INFECTION: 3 weekly foliar applications after inoculation", "protocol": "Croton plants inoculated with Xanthomonas were tested with various fungicides. […] AI/100 gal. and Kocide 101 at 7.4 lbs. AI/Acre (A) were applied as foliar applications to croton (Codiaeum variegatum) previously inoculated with Xanthomonas campestris a day earlier. Treatments were assigned in a RCB design and replicated 10 times with single pots. Treatments were applied 3 times on a weekly schedule and evaluated at 7 and 14 days following the last application. See data below."}, "[6]": {"details": "1 gal. (0.55 wt. % AI)/100 gallons"}, "[7]": {"details": "1 gal. (0.53 wt. % AI)/100 gallons"}},
  "note": "Where two headings read alike, the source gives them in different places.",
  "data": [
    {"molecule": "CC1COC(Cn2cncn2)(c2ccc(Oc3ccc(Cl)cc3)cc2Cl)O1", "note": "(stereo not shown) [Difenconazole, 1-2[2-[4-(4-chlorophenoxy)-2-chlorophenyl-(4-methyl-1,3-dioxolan-2-l)-methyl]]-1H-1 ,2,4-triazole, reference compound]", "values": [
      {"measurement": "#PERITHECIA (Number of Perithecia Per 5 MM Field at 2.5×, Mean of Three Observations)", "setting": "[1]; rate 100 gm AI/100 gallons", "value": 5.32, "unit": "ab"},
      {"measurement": "#PERITHECIA (Number of Perithecia Per 5 MM Field at 2.5×, Mean of Three Observations)", "setting": "[1]; rate 200 gm AI/100 gallons", "value": 11.57, "unit": "ab"},
      {"measurement": "DISEASE INDEX", "setting": "[2]; 2 oz. product/100 gallons", "value": 2.25}
    ]},
    {"molecule": "O=C([O-])CN(CCN(CC(=O)[O-])CC(=O)[O-])CC(=O)[O-].[Fe+3]", "note": "[Fe-EDTA, Fe-EDTA (ethylenediaminetetraacetic acid)]", "values": [
      {"measurement": "Phytotoxicity rankings of Fe chelates", "setting": "plants", "value": "intermediate phytotoxic"}
    ]},
    {"molecule": "O=C([O-])CN(CCO)CCN(CC(=O)[O-])CC(=O)[O-].[Fe+3]", "note": "[Fe-HEEDTA, Fe-HEEDTA (hydroxyethylethylenediaminetriacetic acid)]", "values": [
      {"measurement": "Phytotoxicity rankings of Fe chelates", "setting": "plants", "value": "most phytotoxic"}
    ]},
    {"molecule": "O=[PH]([O-])[O-].[K+].[K+]", "note": "[Sample K2HPO3]", "values": [
      {"measurement": "Potato late blight control, verdict", "setting": "[3]; Example 11, comment on the table", "value": "good results in controlling the blight"},
      {"measurement": "LESIONS PER PLANT", "setting": "[3]; 1% v/v", "value": 2.4},
      {"measurement": "NO. INFECTED LEAFLETS PER PLANT", "setting": "[3]; 1% v/v", "value": 1.8},
      {"measurement": "% LATE BLIGHT", "setting": "[3]; 1% v/v", "value": 1.85, "unit": "%"},
      {"measurement": "LESIONS PER PLANT", "setting": "[4]", "value": 56.7},
      {"measurement": "NO. INFECTED LEAFLETS PER PLANT", "setting": "[4]", "value": 21.5},
      {"measurement": "AVERAGE % OF INFECTION 04/23/96", "setting": "Alternaria dauci; [6]", "value": 28.8, "unit": "%"},
      {"measurement": "AVERAGE % OF INFECTION 04/05/96", "setting": "Alternaria dauci; [6]", "value": 18.7, "unit": "%"}
    ]},
    {"molecule": "O=P([O-])([O-])O.[K+].[K+]", "note": "[Sample K2HPO4, dipotassium phosphate]", "values": [
      {"measurement": "LESIONS PER PLANT", "setting": "[3]; 1% v/v", "value": 41.4},
      {"measurement": "NO. INFECTED LEAFLETS PER PLANT", "setting": "[3]; 1% v/v", "value": 31.1},
      {"measurement": "% LATE BLIGHT", "setting": "[3]; 1% v/v", "value": 18.45, "unit": "%"},
      {"measurement": "LESIONS PER PLANT", "setting": "[4]", "value": 74.8},
      {"measurement": "NO. INFECTED LEAFLETS PER PLANT", "setting": "[4]", "value": 36.5},
      {"measurement": "AVERAGE % OF INFECTION 04/23/96", "setting": "Alternaria dauci; [7]", "value": 8.2, "unit": "%"},
      {"measurement": "AVERAGE % OF INFECTION 04/05/96", "setting": "Alternaria dauci; [7]", "value": 6.9, "unit": "%"}
    ]},
    {"molecule": "Fe-DTPA (di-ethylenetriaminepentaacetic acid)", "values": [
      {"measurement": "Phytotoxicity rankings of Fe chelates", "setting": "plants", "value": "less phytotoxic"}
    ]},
    {"molecule": "Sodium cupric ethylenediamine-di-o-hydroxyphenylacetic acid [Cu-EDDHA]", "values": [
      {"measurement": "Perithecia reduction, verdict", "setting": "[1]; Example 2, comment on the table", "value": "good results"},
      {"measurement": "#PERITHECIA (Number of Perithecia Per 5 MM Field at 2.5×, Mean of Three Observations)", "setting": "[1]; rate 0.2 lbs. AI/100 gallons", "value": 3.24, "unit": "b"},
      {"measurement": "#PERITHECIA (Number of Perithecia Per 5 MM Field at 2.5×, Mean of Three Observations)", "setting": "[1]; rate 0.4 lbs. AI/100 gallons", "value": 5.93, "unit": "ab"},
      {"measurement": "DISEASE INDEX", "setting": "[2]; 8 oz. product/100 gallons", "value": 2.8},
      {"measurement": "Oak leaf blister repression, verdict", "setting": "[2]; Example 5, comment on the table", "value": "suitable disease repression"},
      {"measurement": "Control of Erwinia on Hibiscus, verdict", "setting": "Erwinia chrysanthemi; 0.2 lb. AI", "value": "excellent control"},
      {"measurement": "AVERAGE % INFECTION", "setting": "Erwinia chrysanthemi; 0.2 lb. AI Cu/100 gallons foliar spray", "value": 6, "unit": "%"},
      {"measurement": "AVERAGE % INFECTION", "setting": "Erwinia chrysanthemi; 0.4 lb. AI Cu/100 gallons foliar spray", "value": 8, "unit": "%"},
      {"measurement": "AVERAGE % INFECTION", "setting": "Erwinia; 0.2 LB. AI/100 gallons", "value": 19, "unit": "%"},
      {"measurement": "Control of Erwinia on Hibiscus, verdict", "setting": "Erwinia; 0.2 lb. AI", "value": "excellent control"},
      {"measurement": "AVERAGE % INFECTION", "setting": "Erwinia; 0.8 LB. AI/100 gallons", "value": 32, "unit": "%"},
      {"measurement": "Disease severity ranking 12 days after the last (eighth) application", "setting": "[5]", "value": "exhibited some control"},
      {"measurement": "Disease severity ranking after four applications", "setting": "[5]", "value": "CGA-143268 which was equal to copper plus mancozeb and Cu-EDDHA in activity"},
      {"measurement": "AVERAGE % OF INFECTION", "setting": "Xanthomonas campestris; 26 ml (.2 lb.) AI/100 gallons", "value": ".6%"},
      {"measurement": "AVERAGE % OF INFECTION", "setting": "Xanthomonas campestris; 52 ml (.4 lb.) AI/100 gallons", "value": 1.0, "unit": "%"},
      {"measurement": "Control of Xanthomonas leaf spot of Codiaeum", "setting": "Xanthomonas campestris; compared to inoculated and noninoculated controls, Cu-EDDHA at the lower rate", "value": "control equal to the noninoculated control treatment"},
      {"measurement": "LESIONS PER PLANT", "setting": "[3]; 0.2 lb. AI/acre", "value": 35.3},
      {"measurement": "NO. INFECTED LEAFLETS PER PLANT", "setting": "[3]; 0.2 lb. AI/acre", "value": 26.9},
      {"measurement": "% LATE BLIGHT", "setting": "[3]; 0.2 lb. AI/acre", "value": 12.30, "unit": "%"},
      {"measurement": "AVERAGE % OF INFECTION 04/23/96", "setting": "Alternaria dauci; 0.2 lb AI/100 gallons", "value": 11.6, "unit": "%"},
      {"measurement": "AVERAGE % OF INFECTION 04/05/96", "setting": "Alternaria dauci; 0.2 lb AI/100 gallons", "value": 8.8, "unit": "%"},
      {"measurement": "Alternaria control on carrots, verdict", "setting": "Alternaria dauci", "value": "effectively limited percentage of fungicidal infection"}
    ]},
    {"molecule": "iron ethylenediamine-di-o-hydroxyphenylacetic acid [Fe-EDDHA]", "values": [
      {"measurement": "AVERAGE % OF INFECTION 04/23/96", "setting": "Alternaria dauci; 0.2 lb AI/100 gallons", "value": 12.9, "unit": "%"},
      {"measurement": "AVERAGE % OF INFECTION 04/05/96", "setting": "Alternaria dauci; 0.2 lb AI/100 gallons", "value": 12.7, "unit": "%"},
      {"measurement": "Alternaria control on carrots, verdict", "setting": "Alternaria dauci", "value": "effective fungicides"}
    ]}
  ]
}
